Measurements: article PMC3744471, “Mitochondria Are the Target Organelle of Differentiation-Inducing Factor-3, an Anti-Tumor Agent Isolated from Dictyostelium Discoideum” (PLoS ONE, 2013)
Where two headings read alike, the source gives them in different places.

What was measured:
HeLa cells = assay: Cell growth assay (Alamar blue), HeLa; type: cell-based, human
Procedure: HeLa, LM8, and 3T3-L1 cells were cultured for 3 days at 2.5–5×10^3 cells/well in 12-well plates with each well filled with 1 ml of DMEM-FBS (for HeLa and 3T3-L1) or MEM-α-FBS (for LM8) together with drugs at various concentrations. Then, the incubation media were discarded and the cells were washed with 1 ml of PBS(–) (20 mM phosphate buffered saline, pH 7.4) and incubated with 1 ml of fresh DMEM-FBS (HeLa and 3T3-L1) or MEM-α-FBS (LM8) containing 5% (v/v) of Alamar blue (a cell number indicator; Wako Pure Chemical Industries, Osaka, Japan) until the color changed. […] Relative cell numbers were determined for each concentration for each drug and the IC50 was determined from the dose-response curves.

LM8 cells = assay: Cell growth assay (Alamar blue), LM8; type: cell-based, mouse; details: Mus musculus, 72 h; LM8 cells, 3 days, Alamar blue
Procedure: (§1) HeLa, LM8, and 3T3-L1 cells were cultured for 3 days at 2.5–5×10^3 cells/well in 12-well plates with each well filled with 1 ml of DMEM-FBS (for HeLa and 3T3-L1) or MEM-α-FBS (for LM8) together with drugs at various concentrations. Then, the incubation media were discarded and the cells were washed with 1 ml of PBS(–) (20 mM phosphate buffered saline, pH 7.4) and incubated with 1 ml of fresh DMEM-FBS (HeLa and 3T3-L1) or MEM-α-FBS (LM8) containing 5% (v/v) of Alamar blue (a cell number indicator; Wako Pure Chemical Industries, Osaka, Japan) until the color changed. The relative cell number was assessed by measuring absorbance at 570 nm (reference at 595 nm) as described previously, [14]; DIF-related compounds and BODIPY-conjugated compounds hardly disturbed the cell number assessment with Alamar blue (data not shown), probably because the additive compounds were washed out when cell number was assessed. For determination of the 50% inhibitory concentration (IC50) of each drug, the cells were cultured for 3 days in the presence of each drug at various concentrations. Relative cell numbers were determined for each concentration for each drug and the IC50 was determined from the dose-response curves.
(§2) Supplementary file pone.0072118.s001.tif: Figure S1 Effects of BODIPY-DIF-3 and CCCP on cell growth, and cellular localization of BODIPY-DIF-3 in LM8 cells. (A) Cells were incubated for 4 days with 5–20 µM of BODIPY-DIF-3 (closed circles) or 2–10 µM of CCCP (closed triangles), and relative cell number was assessed by the use of Alamar blue. Data are the mean values and SD (bars) of three independent experiments. (B) Cells were incubated for 0.5 h or 3 days with 20 µM of BODIPY-DIF-3, washed free of the additive, and observed microscopically. (C) Cells were incubated for 0.5 h with BODIPY-DIF-3 (20 µM), Hoechst (0.1 µg/ml), and MitoTracker (0.1 µM), washed free of the additives, and observed by using a high-magnification fluorescence microscope. (D) Cells were incubated for 3 days with BODIPY-DIF-3 (20 µM) and then for 0.5 h with Hoechst (0.1 µg/ml) and MitoTracker (0.1 µM). Cells were washed free of the additives and observed by using a high-magnification fluorescence microscope. (TIF) Click here for additional data file.

3T3-L1 cells = assay: Cell growth assay (Alamar blue), 3T3-L1; type: cell-based, mouse; details: Mus musculus, 72 h; 3T3-L1 cells, 3 days, Alamar blue
Procedure: as §1
as §2, with “pone.0072118.s002.tif:” for “pone.0072118.s001.tif:”, “S2” for “S1”, “3T3-L1” for “LM8”

mouse liver mitochondria = assay: Mitochondrial oxygen consumption (Clark-type oxygen electrode); type: biochemical
Procedure: Mitochondria were isolated from mouse liver (ICR; 7–10 week-old females) by differential centrifugation as described previously. Cells were homogenized in a Potter glass homogenizer with H-Buffer (250 mM sucrose, 10 mM Tris-HCl pH 7.4), and centrifuged at 800g for 1 min at 4°C. The supernatant was centrifuged at 6,000g for 5 min, and the resulting pellet, the crude mitochondrial fraction, was suspended in H-Buffer. The suspension was layered over a discontinuous sucrose gradient consisting of 1.1 M and 1.6 M sucrose in a Tris buffer (10 mM Tris-HCl pH 7.4), and centrifuged for 3 h at 90,000g at 4°C. The interface was collected in Tris buffer and centrifuged at 6,000g for 5 min. The resulting pellets were suspended in Tris buffer and used for experiments after confirming the presence of the mitochondrial marker cytochrome c.
Mitochondrial oxygen consumption was determined using a Clark-type oxygen electrode (Strathkelvin Instruments Ltd., North Lanarkshire, Scotland) as described, [39]. The mitochondria-enriched fraction was incubated at 30°C in oxygen measurement buffer (225 mM mannitol, 75 mM sucrose, 10 mM KCl, 0.1 mM EDTA, 3 mM phosphate, 5 mM succinate, 5 mM glutamate, and 20 mM Tris-HCl pH 7.4) in the presence or absence of various concentrations of the DIF-like molecules or CCCP. After recording ‘State 4’ of the respiration reaction, an aliquot of ADP was added to a final concentration of 200 µM to induce ‘State 3’. The PC100 (100% promoting concentration) of each additive was defined as the drug concentration that doubled the basal rate of oxygen consumption during State 3, which was calculated from the dose-response plot for the rate of oxygen consumption (Figure 8).

[1] = test system: mitochondrial respiration; set-up: method as in PMID 7777565; details: in D. discoideum; read-out: IC50 for inhibition (uncoupling) of mitochondrial respiration; cited from earlier work
[2] = test system: mitochondrial malate dehydrogenase (mMDH); set-up: method as in PMID 20173310; details: cited from earlier work
[3] = test system: calmodulin-dependent cyclic nucleotide phosphodiesterase (PDE1); set-up: method as in PMID 15059913; details: cited from earlier work
[4] = test system: cyclin D1 and cyclin D3 in HeLa cells; assay: Western blotting of cyclin D expression; type: cell-based, human; details: 20 h, DIF-3 20 µM, Bu-DIF-3 5–7.5 µM, BODIPY-DIF-3 20 µM, CCCP 10 µM, azide 0.01%
Procedure: HeLa cells were incubated for 20 h with 1 ml of DMEM-FBS containing the indicated additives in 12-well plates (2–4×10^5 cells/well), washed twice with PBS(–), harvested by adding 100–200 µl of an SDS-sample buffer solution (in proportion to cell density: relative cell number), sonicated (heated), and used for SDS-PAGE. Western blot transfer and immunoblotting were performed as described previously, by using a primary antibody for cyclin D1, cyclin D2, cyclin D3, or GAPDH, and a second antibody, an alkaline phosphatase-conjugated anti-mouse or anti-rabbit IgG antibody. […] Visualized protein bands were then digitized and quantified by using Adobe Photoshop CS4 (version 11.0) (Adobe, San Jose, CA, USA) and ImageJ Software (version 1.4) (http://rsb.info.nih.gov/ij/).

## CCCCNC(=O)CCC1=[N+]2C(=Cc3c(C)cc(C)n3[B-]2(F)F)C=C1 [Bu-BODIPY]
HeLa cells; HeLa, 5–20 µM (Bu-BODIPY up to 20 µM), 3 days
  Effect on cell growth (relative cell number): hardly affected
HeLa cells; Homo sapiens, 72 h, HeLa cells, 3 days, Alamar blue
  IC50: > 20 µM
LM8 cells
  IC50: > 20 µM
3T3-L1 cells
  IC50: > 20 µM
Mouse liver mitochondria; 1–100 µM
  Effect on basal rate of O2 consumption: had no effect
Mouse liver mitochondria; 100% promoting concentration: doubles the basal rate of oxygen consumption, 30°C
  PC100 (µM) for Mito. O2 consumption: >100 µM

## CCCCCC(=O)c1c(O)c(Cl)c(OC)c(Cl)c1O [DIF-1, 1-(3,5-dichloro-2,6-dihydroxy-4-methoxyphenyl)hexan-1-one, reference compound]
HeLa cells; HeLa, 20 µM, 3 days
  Effect on cell growth (relative cell number): significantly suppressed
[1]
  IC50: 0.54 µM
[2]
  Binding to and inhibition of mMDH: binds to mitochondrial malate dehydrogenase (mMDH) and inhibits its activity
[3]
  Inhibition of PDE1: direct inhibitors of PDE1

## [N-]=[N+]=[N-].[Na+] [azide, NaN3, reference compound]
HeLa cells
  Effect on cell growth (relative cell number): suppressed cell growth
[4]
  Expression of cyclin D1: suppressed
  Expression of cyclin D3: but not of cyclin D3
